In the data set the test system is CCRIS mutagenicity, Ames/micronucleus/aberration tests. Briefly: CCRIS mutagenicity studies.
[1] abbreviates: Test System: AMES SALMONELLA TYPHIMURIUM, Strain/Indicator: TA1537, Metabolic Activation: NONE, Method: STANDARD PLATE.
The mark [2] stands for this setting: Test System: AMES SALMONELLA TYPHIMURIUM, Strain/Indicator: TA98, Metabolic Activation: NONE, Method: STANDARD PLATE.
The mark [3] stands for this setting: Test System: AMES SALMONELLA TYPHIMURIUM, Strain/Indicator: TA100, Metabolic Activation: NONE, Method: STANDARD PLATE.
[4] abbreviates: Test System: AMES SALMONELLA TYPHIMURIUM, Strain/Indicator: TA100, Metabolic Activation: NONE, Method: PREINCUBATION
Setting [5] is: Test System: AMES SALMONELLA TYPHIMURIUM, Strain/Indicator: TA1535, Metabolic Activation: NONE, Method: STANDARD PLATE.
[6] abbreviates: Test System: AMES SALMONELLA TYPHIMURIUM, Strain/Indicator: TA98, Metabolic Activation: RAT, LIVER, S-9, AROCLOR 1254, Method: STANDARD PLATE.
The mark [7] stands for this setting: Test System: AMES SALMONELLA TYPHIMURIUM, Strain/Indicator: TA100, Metabolic Activation: RAT, LIVER, S-9, AROCLOR 1254, Method: STANDARD PLATE.
[8] abbreviates: Test System: AMES SALMONELLA TYPHIMURIUM, Strain/Indicator: TA1535, Metabolic Activation: RAT, LIVER, S-9, AROCLOR 1254, Method: STANDARD PLATE.
Where [9] appears, read: Test System: AMES SALMONELLA TYPHIMURIUM, Strain/Indicator: TA1537, Metabolic Activation: RAT, LIVER, S-9, AROCLOR 1254, Method: STANDARD PLATE.

This is an account of results in PubChem BioAssay AID1259407 (Chemical Carcinogenesis Research Information System (CCRIS), 2018).

Active and inactive are the calls of the source. The rule behind the calls is not given here.

Take `C(=NC1CCCCC1)=NC1CCCCC1`: the mutagenic call runs as follows: (End Point: In vivo micronucleus, Test System: Bone marrow polychromatic erythrocytes, Species: Rat, Strain/Sex: F344/N/Male, Route: Intraperitoneal) “inactive; negative”; (End Point: In vivo micronucleus, Test System: Peripheral blood normochromatic erythrocytes, Species: Mouse, Strain/Sex: B6C3F1/ Female, Route: Dermal) “active; positive (significant increase in the frequency only at 3 mg/kg (p=0.003))”; (End Point: In vivo micronucleus, Test System: Peripheral blood normochromatic erythrocytes, Species: Mouse, Strain/Sex: B6C3F1/ Male, Route: Dermal) “active; positive (results of trend test significant (p=0.003 but increase in frequency o”; (Test System: Ames Salmonella typhimurium, Strain/Indicator: TA97, Metabolic Activation: Hamster, liver S-9, Aroclor 1254, 10 and 30%, Method: Preincubation) “inactive; negative”; (Test System: Ames Salmonella typhimurium, Strain/Indicator: TA97, Metabolic Activation: None, Method: Preincubation) “inactive; negative”; (Test System: Ames Salmonella typhimurium, Strain/Indicator: TA97, Metabolic Activation: Rat, liver S-9, Aroclor 1254, 10 and 30%, Method: Preincubation) “inactive; negative”. Moreover, the mutagenic call is “inactive; negative” (Test System: Ames Salmonella typhimurium, Strain/Indicator: TA98, Metabolic Activation: Hamster, liver S-9, Aroclor 1254, 10 and 30%, Method: Preincubation); “inactive; negative” (Test System: Ames Salmonella typhimurium, Strain/Indicator: TA98, Metabolic Activation: None, Method: Preincubation); “inactive; negative” (Test System: Ames Salmonella typhimurium, Strain/Indicator: TA98, Metabolic Activation: Rat, liver S-9, Aroclor 1254, 10 and 30%, Method: Preincubation); “inactive; negative” (Test System: Ames Salmonella typhimurium, Strain/Indicator: TA100, Metabolic Activation: Hamster, liver S-9, Aroclor 1254, 10 and 30%, Method: Preincubation); “inactive; negative” (Test System: Ames Salmonella typhimurium, Strain/Indicator: TA100, Metabolic Activation: None, Method: Preincubation); “inactive; negative” (Test System: Ames Salmonella typhimurium, Strain/Indicator: TA100, Metabolic Activation: Rat, liver S-9, Aroclor 1254, 10 and 30%, Method: Preincubation). The mutagenic call by setting is: (Test System: Ames Salmonella typhimurium, Strain/Indicator: TA1535, Metabolic Activation: Hamster, liver, S-9, Aroclor 1254, 10 and 30%, Method: Preincubation) “inactive; negative”; (Test System: Ames Salmonella typhimurium, Strain/Indicator: TA1535, Metabolic Activation: None, Method: Preincubation) “inactive; negative”; (Test System: Ames Salmonella typhimurium, Strain/Indicator: TA1535, Metabolic Activation: Rat, liver, S-9, Aroclor 1254, 10 and 30%, Method: Preincubation) “inactive; negative”.

Take `CS(=O)(=O)Nc1ccc(Nc2c3ccccc3nc3ccc(N=[N+]=[N-])cc23)cc1`: under setting [1], the mutagenic call was “active; positive”.

With `Cc1c2ccccc2c(CBr)c2c1ccc1ccccc12`, the mutagenic call reads like this: under setting [2], “active; positive”; under setting [3], “active; positive”.

Regarding `C=COc1ccc([N+](=O)[O-])cc1`, the mutagenic call runs as follows: (Test System: AMES SALMONELLA TYPHIMURIUM, Strain/Indicator: TA100(NR), Metabolic Activation: MOUSE, LIVER, S-13, Method: STANDARD PLATE) “active; positive”; (Test System: AMES SALMONELLA TYPHIMURIUM, Strain/Indicator: TA100(NR), Metabolic Activation: NONE, Method: PREINCUBATION) “inactive; negative”; (Test System: AMES SALMONELLA TYPHIMURIUM, Strain/Indicator: TA100(NR), Metabolic Activation: NONE, Method: STANDARD PLATE) “inactive; negative”; (Test System: AMES SALMONELLA TYPHIMURIUM, Strain/Indicator: TA100(NR), Metabolic Activation: RAT, LIVER, S-9, PCB, Method: PREINCUBATION) “active; positive”; (Test System: AMES SALMONELLA TYPHIMURIUM, Strain/Indicator: TA100, Metabolic Activation: MOUSE, LIVER, S-13, Method: STANDARD PLATE) “active; positive”; under setting [4], “active; positive”. The mutagenic call reads like this: under setting [3], “active; positive”; (Test System: AMES SALMONELLA TYPHIMURIUM, Strain/Indicator: TA100, Metabolic Activation: RAT, LIVER, S-9, PCB, Method: PREINCUBATION) “active; positive”; (Test System: AMES SALMONELLA TYPHIMURIUM, Strain/Indicator: TA1535, Metabolic Activation: MOUSE, LIVER, S-13, Method: STANDARD PLATE) “active; positive”; under setting [5], “inactive; negative”.

With `O=C(OCc1ccc(Cl)cc1)c1cccc2cccnc12`, the mutagenic call was “inactive; negative” under setting [2]; “inactive; negative” under setting [6]; “inactive; negative” under setting [3]; “inactive; negative” under setting [7]; “inactive; negative” under setting [5]; “inactive; negative” under setting [8]. In addition, the mutagenic call by setting is: under setting [1], “inactive; negative”; under setting [9], “inactive; negative”.

`CC(=O)C(Cl)Cl`: the mutagenic call reads like this: under setting [2], “inactive; negative”; under setting [6], “inactive; negative”; (Test System: AMES SALMONELLA TYPHIMURIUM, Strain/Indicator: TA100, Metabolic Activation: NONE, Method: FLUCTUATION TEST) “active; positive”; (Test System: AMES SALMONELLA TYPHIMURIUM, Strain/Indicator: TA100, Metabolic Activation: RAT, LIVER, S-9, AROCLOR 1254, Method: FLUCTUATION TEST) “inactive; negative”; under setting [7], “active; positive”; under setting [5], “active; positive”. Moreover, the mutagenic call is, setting by setting: under setting [8], “active; positive”; under setting [1], “inactive; negative”; under setting [9], “inactive; negative”.

In the case of `Cc1cc(C)cc([N+](=O)[O-])c1`, the mutagenic call reads like this: (Test System: AMES SALMONELLA TYPHIMURIUM, Strain/Indicator: TA98, Metabolic Activation: NONE, Method: PREINCUBATION) “inactive; negative”; (Test System: AMES SALMONELLA TYPHIMURIUM, Strain/Indicator: TA98, Metabolic Activation: RAT, LIVER, S-9, KANECHLOR 500, Method: PREINCUBATION) “inactive; negative”; under setting [4], “inactive; negative”; (Test System: AMES SALMONELLA TYPHIMURIUM, Strain/Indicator: TA100, Metabolic Activation: RAT, LIVER, S-9, KANECHLOR 500, Method: PREINCUBATION) “inactive; negative”.

In the case of `CCN(CO)N=O`, the mutagenic call (Test System: CHINESE HAMSTER V-79, Strain/Indicator: V-79/OUABAIN, Metabolic Activation: NONE) is “active; positive”.

Take `CCOC(=O)c1[nH]c2ccccc2c1N=Cc1ccc([N+](=O)[O-])cc1`: the mutagenic call by setting is: (Test System: AMES SALMONELLA TYPHIMURIUM, Strain/Indicator: TA97, Metabolic Activation: NONE, Method: STANDARD PLATE) “inactive; negative”; (Test System: AMES SALMONELLA TYPHIMURIUM, Strain/Indicator: TA97, Metabolic Activation: RAT, LIVER, S-9, AROCLOR 1254, Method: STANDARD PLATE) “inactive; negative”; under setting [2], “inactive; negative”; under setting [6], “active; positive”; under setting [3], “inactive; negative”; under setting [7], “inactive; negative”. In addition, the mutagenic call was “inactive; negative” (Test System: AMES SALMONELLA TYPHIMURIUM, Strain/Indicator: TA102, Metabolic Activation: NONE, Method: STANDARD PLATE) and “inactive; negative” (Test System: AMES SALMONELLA TYPHIMURIUM, Strain/Indicator: TA102, Metabolic Activation: RAT, LIVER, S-9, AROCLOR 1254, Method: STANDARD PLATE).

Take `CC(=O)Nc1snc2ccccc12`: the mutagenic call runs as follows: under setting [2], “inactive; negative”; (Test System: AMES SALMONELLA TYPHIMURIUM, Strain/Indicator: TA98, Metabolic Activation: S-9, Method: STANDARD PLATE) “inactive; negative”; under setting [3], “inactive; negative”; (Test System: AMES SALMONELLA TYPHIMURIUM, Strain/Indicator: TA100, Metabolic Activation: S-9, Method: STANDARD PLATE) “active; positive”; under setting [5], “inactive; negative”; (Test System: AMES SALMONELLA TYPHIMURIUM, Strain/Indicator: TA1535, Metabolic Activation: S-9, Method: STANDARD PLATE) “inactive; negative”. Moreover, the mutagenic call is “active; positive” under setting [1] and “active; positive” (Test System: AMES SALMONELLA TYPHIMURIUM, Strain/Indicator: TA1537, Metabolic Activation: S-9, Method: STANDARD PLATE).
